Measured values from ChEMBL document CHEMBL5390318, “2-Amino-5-arylethynyl-thiophen-3-yl-(phenyl)methanones as A1 Adenosine Receptor Positive Allosteric Modulators” (ACS Med Chem Lett, 2023).

What was measured:
[1] = target: Sigma intracellular receptor 2 (Homo sapiens, UniProt Q5BJF2); assay: Binding affinity to sigma 2 receptor (unknown origin)
[2] = target: 5-hydroxytryptamine receptor 7 (Homo sapiens, UniProt P34969); assay: Binding affinity to 5HT-7A receptor (unknown origin)
Translocator protein = Translocator protein (Homo sapiens, UniProt P30536); assay: Binding affinity to TSPO (unknown origin)
[3] = target: Beta-3 adrenergic receptor (Homo sapiens, UniProt P13945); assay: Binding affinity to beta3 adrenergic receptor (unknown origin)
Beta-3 adrenergic receptor, sequence (P13945 whole entry): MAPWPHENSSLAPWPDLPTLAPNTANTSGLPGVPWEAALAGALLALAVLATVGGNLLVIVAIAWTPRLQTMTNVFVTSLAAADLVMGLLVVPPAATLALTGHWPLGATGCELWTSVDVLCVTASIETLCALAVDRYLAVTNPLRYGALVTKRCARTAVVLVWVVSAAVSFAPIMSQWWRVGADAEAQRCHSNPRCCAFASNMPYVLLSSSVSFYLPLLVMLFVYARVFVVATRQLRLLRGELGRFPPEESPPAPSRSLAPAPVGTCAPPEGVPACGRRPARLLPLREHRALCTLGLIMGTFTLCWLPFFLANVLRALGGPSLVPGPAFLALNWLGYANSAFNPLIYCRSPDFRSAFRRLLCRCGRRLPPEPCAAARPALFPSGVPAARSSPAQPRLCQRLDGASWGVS

Sigma intracellular receptor 2, sequence (Q5BJF2 whole entry): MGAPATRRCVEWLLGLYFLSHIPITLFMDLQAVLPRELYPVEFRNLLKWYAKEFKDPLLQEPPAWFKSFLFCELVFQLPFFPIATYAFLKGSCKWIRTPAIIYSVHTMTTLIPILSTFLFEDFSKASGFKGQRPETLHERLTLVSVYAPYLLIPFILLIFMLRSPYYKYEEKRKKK
Translocator protein, sequence (P30536 whole entry): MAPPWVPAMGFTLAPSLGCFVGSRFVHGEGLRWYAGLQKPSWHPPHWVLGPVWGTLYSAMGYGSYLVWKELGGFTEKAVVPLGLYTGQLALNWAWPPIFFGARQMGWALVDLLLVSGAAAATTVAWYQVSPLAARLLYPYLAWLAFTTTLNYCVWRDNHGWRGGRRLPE
5-hydroxytryptamine receptor 7, sequence (P34969 whole entry): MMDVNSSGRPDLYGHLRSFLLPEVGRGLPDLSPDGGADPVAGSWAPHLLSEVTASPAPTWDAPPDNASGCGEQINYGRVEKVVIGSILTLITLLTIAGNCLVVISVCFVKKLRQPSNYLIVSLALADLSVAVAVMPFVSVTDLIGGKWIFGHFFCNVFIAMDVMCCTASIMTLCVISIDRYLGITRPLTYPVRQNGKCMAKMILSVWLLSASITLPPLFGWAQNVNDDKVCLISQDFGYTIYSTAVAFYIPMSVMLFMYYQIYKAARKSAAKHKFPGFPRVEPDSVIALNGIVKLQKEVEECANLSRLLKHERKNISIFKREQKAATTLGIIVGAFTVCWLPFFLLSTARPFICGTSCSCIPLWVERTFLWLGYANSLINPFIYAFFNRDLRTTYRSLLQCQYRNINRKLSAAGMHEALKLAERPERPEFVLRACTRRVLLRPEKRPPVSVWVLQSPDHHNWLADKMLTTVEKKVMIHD

Ki [1]: 1.4 µM
Ki [2]: 5.7 µM
Ki (Translocator protein): 0.56 µM
Ki [3]: 3.5 µM
Structure (SMILES): CC(C)(C)Cc1c(C#Cc2ccccc2F)sc(N)c1C(=O)c1ccc(Cl)cc1
